# Test results published in patent US7015228B2, “4-amino-2-(2-pyridyl)pyrimidines as microbicidal active substances” (Ciba Specialty Chemicals Corporation, priority 2001, dated 2006).
# What was measured:
# Format in all cases: cell-based
# [1] = test system: Epidermophyton floccosum DSM 10709; experiment: Minimum inhibitory concentration (MIC), further microorganisms; settings: Table 8; * = significant inhibition of growth, but not complete inhibition
# Experimental: (§1) Determination of the Minimum Inhibitory Concentration (MIC Value) in Microtitre Plates
# (§2) Casein-soybean flour-peptone broth for preparation of pre-cultures of test bacteria and yeast.
# (§3) Mycological slant agar for the pre-culture of moulds
# (§4) The test substances are pre-dissolved in dimethyl sulfoxide (DMSO) and tested in a dilution series of 1:2.
# (§5) Bacteria and yeast are cultured overnight in CASO broth, the mould is cultured overnight on mycological slant agar, and washed off using 10 ml of 0.85% sodium chloride solution (+0.1% Triton X-100).
# (§6) All the test organisms are adjusted to an organism count of 1–5×10^6 CFU/ml using 0.85% sodium chloride solution.
# (§7) The test substances are pre-pipetted into microtitre plates in amounts of 8 μl per well.
# (§8) Pre-diluted organism suspensions are diluted 1:100 in CASO broth (bacteria and yeast) or Sabouraud 2% glucose broth (mould) and are added in amounts of 192 μl per well to the test substances.
# (§9) The test batches are incubated for 48 hours at 37° C. (bacteria and yeast) or for 5 days at 28° C. (mould).
# (§10) After incubation, the growth is determined on the basis of the turbidity of the test batches (optical density) at 620 nm in a microplate reader.
# (§11) The minimum inhibitory concentration (MIC value) is the concentration of substance at which there is found (compared to the growth of the control) an appreciable inhibition of growth (≦20% growth) of the test organisms.
# (§12) One microtitre plate is used for each test organism and substance concentration. All the substances are tested in duplicate.
# [2] = test system: Staphylococcus aureus ATCC 9144; experiment: as above; settings: Table 8; * = significant inhibition of growth, but not complete inhibition
# Experimental: as §1, §2, §3, §4, §5, §6, §7, §8, §9, §10, §11, §12
# [3] = test system: Trichophyton mentagrophytes ATCC 9533; experiment: as above; settings: Table 8; * = significant inhibition of growth, but not complete inhibition
# Experimental: as §1, §2, §3, §4, §5, §6, §7, §8, §9, §10, §11, §12
# [4] = test system: Micrococcus luteus ATCC 9341; experiment: as above; settings: Table 8; * = significant inhibition of growth, but not complete inhibition
# Experimental: as §1, §2, §3, §4, §5, §6, §7, §8, §9, §10, §11, §12
# [5] = test system: S. epidermidis ATCC 12228; experiment: as above; settings: Table 8; * = significant inhibition of growth, but not complete inhibition
# Experimental: as §1, §2, §3, §4, §5, §6, §7, §8, §9, §10, §11, §12
# [6] = test system: Enterococcus hirae ATCC 10541; experiment: as above; settings: Table 8; * = significant inhibition of growth, but not complete inhibition
# Experimental: as §1, §2, §3, §4, §5, §6, §7, §8, §9, §10, §11, §12
# [7] = test system: Staphylococcus hominis DMS 20328; experiment: Minimum inhibitory concentration (MIC) in microtitre plates; settings: Table 7; 48 hours at 37° C.; MIC = ≦20% growth compared to control
# Experimental: as §1, §2, §3
# (§13) Examples of Test Organisms:
# as §4, §5, §6, §7, §8, §9, §10, §11, §12
# [8] = test system: Escherichia coli NCTC 8196; experiment: as above; settings: for Minimum inhibitory concentration (MIC) E. coli: Table 7, 48 hours at 37° C., MIC = ≦20% growth compared to control; for Minimum inhibitory concentration (MIC) E. coli NCTC 8196: Table 8, * = significant inhibition of growth, but not complete inhibition
# Experimental: as §1, §2, §3, §13, §4, §5, §6, §7, §8, §9, §10, §11, §12
smiles,measurement,setting,value
CCCCCCCCNc1nc(-c2ccccn2)nc(C)c1CC [compound 9],Minimum inhibitory concentration (MIC) Epidermophyton floccosum DSM 10709,[1],*15 μg/mL
same,Minimum inhibitory concentration (MIC) Staphylococcus aureus ATCC 9144,[2],15 µg/mL
same,Minimum inhibitory concentration (MIC) Trichophyton mentagrophytes ATCC 9533,[3],*30 μg/mL
same,Minimum inhibitory concentration (MIC) Micrococcus luteus ATCC 9341,[4],3.75 µg/mL
same,Minimum inhibitory concentration (MIC) S. epidermidis ATCC 12228,[5],*15 μg/mL
same,Minimum inhibitory concentration (MIC) Enterococcus hirae ATCC 10541,[6],30 µg/mL
same,Minimum inhibitory concentration (MIC) S. hominis,[7],7.5 µg/mL
same,Minimum inhibitory concentration (MIC) E. coli,[8],>120 µg/mL
same,Minimum inhibitory concentration (MIC) E. coli NCTC 8196,[8],>60 µg/mL
CCCCCCCCCNc1nc(-c2ccccn2)nc(C)c1CC [compound 10],Minimum inhibitory concentration (MIC) Epidermophyton floccosum DSM 10709,[1],60 µg/mL
same,Minimum inhibitory concentration (MIC) Staphylococcus aureus ATCC 9144,[2],15 µg/mL
same,Minimum inhibitory concentration (MIC) Trichophyton mentagrophytes ATCC 9533,[3],60 µg/mL
same,Minimum inhibitory concentration (MIC) Micrococcus luteus ATCC 9341,[4],<0.5 µg/mL
same,Minimum inhibitory concentration (MIC) S. epidermidis ATCC 12228,[5],15 µg/mL
same,Minimum inhibitory concentration (MIC) Enterococcus hirae ATCC 10541,[6],30 µg/mL
same,Minimum inhibitory concentration (MIC) S. hominis,[7],5 µg/mL
same,Minimum inhibitory concentration (MIC) E. coli,[8],>80 µg/mL
same,Minimum inhibitory concentration (MIC) E. coli NCTC 8196,[8],>60 µg/mL
CCCCCCCCCCNc1nc(-c2ccccn2)nc(C)c1CC [compound 11],Minimum inhibitory concentration (MIC) Epidermophyton floccosum DSM 10709,[1],>60 µg/mL
same,Minimum inhibitory concentration (MIC) Staphylococcus aureus ATCC 9144,[2],7.5 µg/mL
same,Minimum inhibitory concentration (MIC) Trichophyton mentagrophytes ATCC 9533,[3],>60 µg/mL
same,Minimum inhibitory concentration (MIC) Micrococcus luteus ATCC 9341,[4],1.9 µg/mL
same,Minimum inhibitory concentration (MIC) S. epidermidis ATCC 12228,[5],7.5 µg/mL
same,Minimum inhibitory concentration (MIC) Enterococcus hirae ATCC 10541,[6],7.5 µg/mL
same,Minimum inhibitory concentration (MIC) S. hominis,[7],3.75 µg/mL
same,Minimum inhibitory concentration (MIC) E. coli,[8],>120 µg/mL
same,Minimum inhibitory concentration (MIC) E. coli NCTC 8196,[8],>60 µg/mL
CCCCCCCCCCNc1cc(C)nc(-c2ccccn2)n1 [compound 23],Minimum inhibitory concentration (MIC) Epidermophyton floccosum DSM 10709,[1],*15 μg/mL
same,Minimum inhibitory concentration (MIC) Staphylococcus aureus ATCC 9144,[2],7.5 µg/mL
same,Minimum inhibitory concentration (MIC) Trichophyton mentagrophytes ATCC 9533,[3],15 µg/mL
same,Minimum inhibitory concentration (MIC) Micrococcus luteus ATCC 9341,[4],<0.5 µg/mL
same,Minimum inhibitory concentration (MIC) S. epidermidis ATCC 12228,[5],7.5 µg/mL
same,Minimum inhibitory concentration (MIC) Enterococcus hirae ATCC 10541,[6],3.75 µg/mL
same,Minimum inhibitory concentration (MIC) S. hominis,[7],3.75 µg/mL
same,Minimum inhibitory concentration (MIC) E. coli,[8],>120 µg/mL
same,Minimum inhibitory concentration (MIC) E. coli NCTC 8196,[8],>60 µg/mL
CCCCCCCNc1cc(C(F)(F)F)nc(-c2ccccn2)n1 [compound 32],Minimum inhibitory concentration (MIC) Epidermophyton floccosum DSM 10709,[1],*60 μg/mL
same,Minimum inhibitory concentration (MIC) Staphylococcus aureus ATCC 9144,[2],15 µg/mL
same,Minimum inhibitory concentration (MIC) Trichophyton mentagrophytes ATCC 9533,[3],>60 µg/mL
same,Minimum inhibitory concentration (MIC) Micrococcus luteus ATCC 9341,[4],>0.5 µg/mL
same,Minimum inhibitory concentration (MIC) S. epidermidis ATCC 12228,[5],7.5 µg/mL
same,Minimum inhibitory concentration (MIC) Enterococcus hirae ATCC 10541,[6],7.5 µg/mL
same,Minimum inhibitory concentration (MIC) S. hominis,[7],3.75 µg/mL
same,Minimum inhibitory concentration (MIC) E. coli,[8],>120 µg/mL
same,Minimum inhibitory concentration (MIC) E. coli NCTC 8196,[8],>60 µg/mL
CCCCCCCCNc1cc(C(F)(F)F)nc(-c2ccccn2)n1 [compound 33],Minimum inhibitory concentration (MIC) Epidermophyton floccosum DSM 10709,[1],>60 µg/mL
same,Minimum inhibitory concentration (MIC) Staphylococcus aureus ATCC 9144,[2],15 µg/mL
same,Minimum inhibitory concentration (MIC) Trichophyton mentagrophytes ATCC 9533,[3],>60 µg/mL
same,Minimum inhibitory concentration (MIC) Micrococcus luteus ATCC 9341,[4],<0.5 µg/mL
same,Minimum inhibitory concentration (MIC) S. epidermidis ATCC 12228,[5],3.75 µg/mL
same,Minimum inhibitory concentration (MIC) Enterococcus hirae ATCC 10541,[6],15 µg/mL
same,Minimum inhibitory concentration (MIC) S. hominis,[7],2.5 µg/mL
same,Minimum inhibitory concentration (MIC) E. coli,[8],>80 µg/mL
same,Minimum inhibitory concentration (MIC) E. coli NCTC 8196,[8],>60 µg/mL
CCCCCCCCCNc1cc(C(F)(F)F)nc(-c2ccccn2)n1 [compound 34],Minimum inhibitory concentration (MIC) Epidermophyton floccosum DSM 10709,[1],>60 µg/mL
same,Minimum inhibitory concentration (MIC) Staphylococcus aureus ATCC 9144,[2],>60 µg/mL
same,Minimum inhibitory concentration (MIC) Trichophyton mentagrophytes ATCC 9533,[3],>60 µg/mL
same,Minimum inhibitory concentration (MIC) Micrococcus luteus ATCC 9341,[4],>0.5 µg/mL
same,Minimum inhibitory concentration (MIC) S. epidermidis ATCC 12228,[5],*60 μg/mL
same,Minimum inhibitory concentration (MIC) Enterococcus hirae ATCC 10541,[6],60 µg/mL
same,Minimum inhibitory concentration (MIC) S. hominis,[7],3.75 µg/mL
same,Minimum inhibitory concentration (MIC) E. coli,[8],>120 µg/mL
same,Minimum inhibitory concentration (MIC) E. coli NCTC 8196,[8],>60 µg/mL
